Laboratory results reported in article PMC6261293 (European journal of medicinal chemistry, 2018).
Converted amounts (≈) assume the structure as drawn.

How the values were obtained:
[1] = system: IL-6 production by MonoMac-6 cells; assay: LPS-induced IL-6 production; type: cell-based, human; details: for inhibition of LPS-induced IL-6 production: concentrations up to 50 µM; for IL-6 IC50: MonoMac-6 cells, 250 ng/ml LPS, 24 h, N.A. = no inhibition at concentrations <40 µM
[2] = system: NF-κB/AP-1 reporter activity in THP-1Blue cells; assay: LPS-induced NF-κB/AP-1 alkaline phosphatase reporter assay; type: cell-based, human; details: for inhibition of LPS-induced NF-κB/AP-1 activity: concentrations up to 50 µM
[3] = system: c-Jun phosphorylation in MonoMac-6 cells; assay: c-Jun; type: cell-based, human; details: 30 min pretreatment, LPS 250 ng/ml 30 min
Solubility in DMSO = type: physicochemical; details: organic solvent or mixture
TRKA = TRKA (Homo sapiens, UniProt P04629); details: ref [29], [30]; cited from earlier work
JNK2 = JNK2 (Homo sapiens, UniProt P45984); assay: KINOMEscan competition binding, JNK2; details: N.A. = no inhibition at concentrations <40 µM
JNK3 = JNK3 (Homo sapiens, UniProt P53779); assay: KINOMEscan competition binding, JNK3; details: N.A. = no inhibition at concentrations <40 µM
[4] = THP-1Blue cells, 250 ng/ml LPS, 24 h, N.A. = no inhibition at concentrations <40 µM

Sequence of TRKA (P04629 33-796): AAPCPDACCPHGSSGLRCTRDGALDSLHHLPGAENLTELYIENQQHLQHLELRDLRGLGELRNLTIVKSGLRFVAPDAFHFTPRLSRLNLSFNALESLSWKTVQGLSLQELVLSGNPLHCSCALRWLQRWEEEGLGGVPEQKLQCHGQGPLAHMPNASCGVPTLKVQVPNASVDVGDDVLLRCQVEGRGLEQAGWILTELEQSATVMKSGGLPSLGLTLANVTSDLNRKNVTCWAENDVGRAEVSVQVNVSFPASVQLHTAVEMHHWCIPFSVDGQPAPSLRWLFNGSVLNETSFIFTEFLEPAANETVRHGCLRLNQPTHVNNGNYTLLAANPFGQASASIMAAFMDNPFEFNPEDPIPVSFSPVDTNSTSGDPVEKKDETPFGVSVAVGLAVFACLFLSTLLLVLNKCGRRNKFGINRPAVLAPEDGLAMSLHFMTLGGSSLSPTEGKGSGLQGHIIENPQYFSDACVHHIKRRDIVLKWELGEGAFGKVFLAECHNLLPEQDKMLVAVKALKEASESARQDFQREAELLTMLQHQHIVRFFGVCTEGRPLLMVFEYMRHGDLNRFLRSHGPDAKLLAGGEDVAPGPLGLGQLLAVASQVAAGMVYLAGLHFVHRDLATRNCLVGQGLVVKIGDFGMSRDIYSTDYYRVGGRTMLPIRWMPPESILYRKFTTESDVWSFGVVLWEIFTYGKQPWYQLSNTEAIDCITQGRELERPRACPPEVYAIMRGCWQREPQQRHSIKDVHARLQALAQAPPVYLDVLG
Sequence of JNK3 (P53779 whole entry): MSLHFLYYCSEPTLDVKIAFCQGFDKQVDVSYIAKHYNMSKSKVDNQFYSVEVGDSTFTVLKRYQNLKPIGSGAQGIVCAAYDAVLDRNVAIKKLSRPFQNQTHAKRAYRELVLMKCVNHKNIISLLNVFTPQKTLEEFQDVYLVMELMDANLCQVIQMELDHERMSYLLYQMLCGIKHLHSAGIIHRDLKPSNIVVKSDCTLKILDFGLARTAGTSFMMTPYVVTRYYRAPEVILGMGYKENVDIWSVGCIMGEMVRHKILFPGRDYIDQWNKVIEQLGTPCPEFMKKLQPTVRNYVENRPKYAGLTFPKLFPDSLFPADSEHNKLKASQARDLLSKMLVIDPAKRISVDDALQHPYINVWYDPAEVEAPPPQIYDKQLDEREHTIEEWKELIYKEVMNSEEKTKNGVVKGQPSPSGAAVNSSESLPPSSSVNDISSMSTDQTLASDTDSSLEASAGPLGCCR
Sequence of JNK2 (P45984 whole entry): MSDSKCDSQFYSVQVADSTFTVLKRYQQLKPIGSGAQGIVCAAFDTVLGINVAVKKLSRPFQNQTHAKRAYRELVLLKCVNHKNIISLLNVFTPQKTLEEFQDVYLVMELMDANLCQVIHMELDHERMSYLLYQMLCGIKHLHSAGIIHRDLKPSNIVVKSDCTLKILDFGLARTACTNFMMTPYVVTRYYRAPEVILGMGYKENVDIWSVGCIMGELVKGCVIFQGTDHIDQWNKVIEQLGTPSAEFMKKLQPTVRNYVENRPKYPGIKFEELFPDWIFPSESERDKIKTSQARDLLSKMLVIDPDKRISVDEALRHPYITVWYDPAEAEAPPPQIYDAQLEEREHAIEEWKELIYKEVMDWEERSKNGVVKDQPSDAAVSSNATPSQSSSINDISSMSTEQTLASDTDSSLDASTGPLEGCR

## O=C1c2ccccc2-c2nc3ncccc3nc21 [3a, 6H-Indeno[1,2-b]pyrido[3,2-e]pyrazin-6-one]
[1]
  inhibition of LPS-induced IL-6 production: did not inhibit
[2]
  inhibition of LPS-induced NF-κB/AP-1 activity: did not inhibit

## [Na+].[O-]/N=C1/c2ccccc2-c2nc3c(Cl)cc(Cl)cc3nc21 [6b, 6,8-Dichloro-11H-indeno[2,3-b]quinoxalin-11-one oxime]
[1]
  IL-6 IC50: did not inhibit
[2]; [4]
  NF-κB/AP-1 IC50: did not inhibit

## [Na+].[O-]/N=C1/c2ccccc2-c2nc3ccc(C(F)(F)F)cc3nc21 [6h, 8-Trifluoromethyl-11H-indeno[2,3-b]quinoxalin-11-one oxime]
[1]
  IL-6 IC50: did not inhibit
[2]; [4]
  NF-κB/AP-1 IC50: did not inhibit

## CCOC(=O)CO/N=C1\c2ccccc2-c2nc3ccccc3nc21 [10c, 11H-Indeno[1,2-b]quinoxalin-11-one O-(O-ethylcarboxymethyl) oxime]
[3]
  inhibition of c-Jun phosphorylation: inhibited c-Jun phosphorylation

## O/N=C1\c2ccccc2-c2nc3ccccc3nc21 [IQ-1, 11H-indeno[1,2-b]quinoxalin-11-one oxime]
Solubility in DMSO
  solubility: ~10 mM (≈ 2470 µg/mL)
TRKA
  binding to TRK-A: did not bind

## O=C(O/N=C1\c2ccccc2-c2nc3ccccc3nc21)c1ccco1 [IQ-3]
TRKA
  binding to TRK-A: did not bind

## O=C1c2ccccc2-n2c1nc1ccccc1c2=O [Trp, tryptanthrin, reference compound]
JNK2
  JNK2 Kd: inactive
[1]
  inhibition of LPS-induced IL-6 production: did not inhibit
JNK3
  JNK3 Kd: inactive
[2]
  inhibition of LPS-induced NF-κB/AP-1 activity: did not inhibit

## O=C1c2ccccc2-c2nc3ccncc3nc21 [compound 5, 10H-Indeno[1,2-b]pyrido[3,4-e]pyrazin-10-one]
[1]
  inhibition of LPS-induced IL-6 production: did not inhibit
[2]
  inhibition of LPS-induced NF-κB/AP-1 activity: did not inhibit

## anthra[1–9-cd]pyrazol-6(2H)-one [SP600125, reference compound]
[2]; read-out: NF-κB/AP-1 IC50, THP-1Blue cells, 250 ng/ml LPS, 24 h, N.A. = no inhibition at concentrations <40 µM
  IC50: 3.4 ± 0.5 µM
